Measurements: patent US7517902B2, “Substituted indazoles, compositions containing the same, and the preparation and use thereof” (Aventis Pharma S.A., priority 2004, dated 2009)

Molecular target: T1, CDK4/cyclin D1 kinase complex (Homo sapiens, UniProt P11802)
T1 construct: HA (Hemagglutinin tag) (C); made in house; host or cells: Sf9 insect cells (baculovirus co-infection)
Experiment: CDK4/cyclinD1 Flashplate assay in 96-well format
Assay type: biochemical
Conditions: read-out: IC 50 CDK4
Protocol: Purification of the CDK4-HA/cyclin D1-(His)6 complex by IMAC (Immobilized Metal Affinity Chromatography):
Two recombinant baculoviruses carrying the human sequences coding respectively for CDK4-HA (C-terminal fusion with the Hemagglutinin tag) and for cyclin D1-(His)6 are used to co-infect Sf9 insect cells. Sixty hours after the beginning of co-infection, the cells are harvested by centrifugation and then frozen at −20° C. until their use. After thawing in buffer A (HEPES 200 mM pH 7.0, NaCl 50 mM, MgCl2 2 mM, imidazole 25 mM, TCEP 1 mM, glycerol 10% (w/v), NaF 1 mM, Na3VO4 1 mM), stirring at 4° C. for 1 h, and centrifugation, the complex present in the lysis supernatant is purified by affinity chromatography on nickel (IMAC) and stored at −80° C.
CDK4/cyclinD1 Flashplate Assay in 96-Well Format.
An assay in 96-well “Flashplate” (scintillation plate) plates coated with streptavidin is used to evaluate the inhibition of the CDK4/cyclin D1 kinase complex by the products of the invention. To perform this test, the biotinylated peptide substrate, a fragment of the pRb protein, (biotinyl-[…]-amide), is dissolved at a concentration of 2 mM in kinase buffer (HEPES/NaOH 50 mM, NaCl 1 mM, MgCl2 5 mM, pH=7.5) to form a stock solution, which is stored at −20° C. in the form of 110 μl aliquots. On the day of the experiment, an aliquot of this solution is thawed and diluted in kinase buffer containing 1 mM of dithiothreitol, added at the time of use, so as to give a final peptide concentration of 2.571 μM. seventy μl of this solution are deposited in each well of the Flashplate plate, to give a final substrate concentration of 1.8 μM during the enzymatic reaction, which is performed in a final volume of 100 μl (cf. below). Intermediate dilutions of inhibitors (products of the invention) at various concentrations are prepared in DMSO from 10 mM stock solutions in separate tubes. In this way dilutions at 1000 μM, 333.3 μM, 111.1 μM, 37.03 μM, 12.35 μM, 4.11 μM and 1.37 μM are produced. One μl of each of these solutions (or 1 μl of DMSO for the controls) is subsequently transferred into the wells of the assay plate. To each well there is subsequently added 19 μl of a solution of a mixture of adenosine triphosphate (ATP) and ATPγ^33P in the kinase buffer at a concentration of 5.26 μM of total ATP and 78.9 μCi/ml of ^33P. The enzymatic reaction is triggered by adding 10 μl per well of a solution of CDK4/cyclin D1 complex at 250 nM in the kinase buffer, containing 1 mM of dithiothreitol (or 10 μl of kinase buffer containing 1 mM of dithiothreitol for the reaction blanks). At the end of the various additions, the final volume in each well is 100 μl, the final substrate concentration is 1.8 μM, the final inhibitor concentrations are 10 μM, 3.33 μM, 1.11 μM, 0.37 μM, 0.123 μM, 0.041 μM and 0.014 μM (depending on the concentration of the intermediate dilution), the final ATP concentration is 1 μM, the final amount of ^33P is 1.5 μCi/well, and the final concentration of CDK4/cyclin D1 complex is 25 nM.
After all of the reagents have been added, the assay plate is incubated at 30° C. with orbital stirring at 650 rpm. Following incubation, the plate is washed three times with 300 μl per well of PBS buffer (phosphate buffered saline, pH=7.4 with neither calcium nor magnesium, reference 10010-015, Gibco BRL). The incorporation of ^33P into the substrate peptide is measured by scintillation counting using a Packard Topcount.NXT instrument. The inhibitory activity of the products of the invention is evaluated by determining the concentration of inhibitor resulting in a 50% reduction in the enzymatic activity (IC50).

T1 sequence (P11802 whole entry): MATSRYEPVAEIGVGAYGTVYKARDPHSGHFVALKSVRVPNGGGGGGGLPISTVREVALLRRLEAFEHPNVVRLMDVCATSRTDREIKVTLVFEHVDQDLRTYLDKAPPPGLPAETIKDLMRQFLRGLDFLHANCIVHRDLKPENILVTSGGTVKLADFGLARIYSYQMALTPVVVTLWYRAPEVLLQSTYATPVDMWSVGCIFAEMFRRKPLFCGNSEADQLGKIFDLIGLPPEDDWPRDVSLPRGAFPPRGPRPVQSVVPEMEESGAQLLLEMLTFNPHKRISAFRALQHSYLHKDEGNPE
T1 sequence (P24385 whole entry partner): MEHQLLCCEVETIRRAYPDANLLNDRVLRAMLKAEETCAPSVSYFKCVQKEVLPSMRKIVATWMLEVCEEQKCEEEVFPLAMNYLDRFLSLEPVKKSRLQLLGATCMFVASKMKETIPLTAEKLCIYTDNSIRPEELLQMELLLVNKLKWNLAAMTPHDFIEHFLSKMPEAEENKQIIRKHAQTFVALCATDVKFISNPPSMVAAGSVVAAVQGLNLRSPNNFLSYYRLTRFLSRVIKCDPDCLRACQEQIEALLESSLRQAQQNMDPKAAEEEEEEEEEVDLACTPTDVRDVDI

Molecule `O=C(Nc1n[nH]c2c(F)c(-c3ccc(NS(=O)(=O)c4cccc5ccccc45)cc3)ccc12)c1ccsc1` [Example 30, Thiophene-3-carboxylic acid{7-fluoro-6-[4-(naphthalene-1-sulfonylamino)-phenyl]-1H-indazol-3-yl}-amide] has an IC50 of 490 nM.

With `Cn1cnc(S(=O)(=O)Nc2ccc(-c3ccc4c(NC(=O)c5ccsc5)n[nH]c4c3F)cc2)c1` [Example 39, Thiophene-3-carboxylic acid{7-fluoro-6[4-(1-methyl-1H-imidazole-4-sulfonylamino)-phenyl]-1H-indazol-3-yl}-amide] the IC50 was 3650 nM.

`O=C(Nc1n[nH]c2c(F)c(-c3ccc(NS(=O)(=O)c4ccccc4)cc3)ccc12)c1ccsc1` [Example 32, Thiophene-3-carboxylic acid[6-(4-benzene-sulfonylamino-phenyl)-7-fluoro-1H-indazol-3-yl]-amide] gave an IC50 of 747 nM.

`CS(=O)(=O)Nc1ccc(-c2ccc3c(NC(=O)c4ccsc4)n[nH]c3c2F)cc1` [Example 34, Thiophene-3-carboxylic acid[7-fluoro-6-(4-methanesulfonyl-aminophenyl)-1H-indazol-3-yl]-amide] gave an IC50 of 2090 nM.

`O=C(Nc1n[nH]c2c(F)c(-c3ccc(NS(=O)(=O)c4ccccc4Cl)cc3)ccc12)c1ccsc1` [Example 37, Thiophene-3-carboxylic acid{6-[4-(2-chloro-benzenesulfonyl-amino)phenyl]-7-fluoro-1H-indazol-3-yl}-amide] gave an IC50 of 51 nM.

`O=C(Nc1n[nH]c2c(F)c(-c3ccc(NS(=O)(=O)C4CC4)cc3)ccc12)c1ccsc1` [Example 36, Thiophene-3-carboxylic acid{6-[4-cyclo-propanesulfonyl-aminophenyl)-7-fluoro-1H-indazol-3-yl}-amide] gave an IC50 of 3600 nM.

In the case of `O=C(Nc1n[nH]c2c(F)c(-c3ccc(NS(=O)(=O)c4cccc(Cl)c4)cc3)ccc12)c1ccsc1` [Example 38, Thiophene-3-carboxylic acid{6-[4-(3-chloro-benzenesulfonyl-amino)phenyl]-7-fluoro-1H-indazol-3-yl}-amide], the IC50 is reported as 419 nM.

Work on `O=C(Nc1n[nH]c2c(F)c(-c3ccc(NS(=O)(=O)c4cccs4)cc3)ccc12)c1ccsc1` [Example 31, Thiophene-3-carboxylic acid{7-fluoro-6-[4-(thiophene-2-sulfonylamino)-phenyl]-1H-indazol-3-yl}-amide] yielded an IC50 of 730 nM.

For `CC(=O)Nc1ccc(S(=O)(=O)Nc2ccc(-c3ccc4c(NC(=O)c5ccsc5)n[nH]c4c3F)cc2)cc1` [Example 33, Thiophene-3-carboxylic acid{6-[4-(4-acetyl-aminobenzene-sulfonylamino)-phenyl]-7-fluoro-1H-indazol-3-yl}-amide], the IC50 was 1210 nM.
